# Laboratory results taken from PMC12693327, “SERAAK2 as a Serotonin Receptor Ligand: Structural and Pharmacological In Vitro and In Vivo Evaluation” (Molecules, 2025).
# “Also recorded” adds a separate entry of the source.
# Experiments:
# [1] = biological target: T1, CYP3A4 (Homo sapiens, UniProt P08684); assay: CYP3A4 luminescent luciferase-based assay (Glo kit); format: in vitro ADME; details: mean ± SEM, two experiments, n = 3 each, read-out: CYP3A4 Activity Inhibition, Evaluated at the Concentration of 10 µM [% of Inhibition ± SEM]
# T1 construct: purchased Promega
# T1 sequence (P08684 whole entry): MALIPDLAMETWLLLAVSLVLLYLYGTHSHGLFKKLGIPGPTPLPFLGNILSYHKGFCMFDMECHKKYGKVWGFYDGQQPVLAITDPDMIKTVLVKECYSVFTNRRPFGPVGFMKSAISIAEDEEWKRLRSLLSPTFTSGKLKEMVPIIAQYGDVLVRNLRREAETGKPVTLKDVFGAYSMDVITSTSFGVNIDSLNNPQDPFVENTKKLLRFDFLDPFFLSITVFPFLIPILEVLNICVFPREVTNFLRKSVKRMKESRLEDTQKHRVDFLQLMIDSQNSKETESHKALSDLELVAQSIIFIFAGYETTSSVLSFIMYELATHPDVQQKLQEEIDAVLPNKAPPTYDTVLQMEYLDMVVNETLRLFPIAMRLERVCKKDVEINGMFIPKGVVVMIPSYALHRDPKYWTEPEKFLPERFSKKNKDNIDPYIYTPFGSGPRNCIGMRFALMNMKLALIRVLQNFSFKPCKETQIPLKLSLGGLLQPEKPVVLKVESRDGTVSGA
# Description: The effect of SERAAK2 on the activity of the cytochrome P450 isoforms CYP3A4 and CYP2D6 was tested using commercial luminescence assays (Glo kits bought from Promega, Medison, WI, USA). The experiment was performed twice with triplicate samples, following the manufacturer’s guidelines and established procedures.
# [2] = system: HepG2 cells; assay: MTS cytotoxicity assay in HepG2 cells; format: cell-based, human; details: 72 h
# Description: (§1) The cytotoxic potential of SERAAK2 was evaluated in two human-derived cell lines chosen for their physiological relevance: HepG2 (hepatocellular carcinoma) and SH-SY5Y (neuroblastoma). […] It is particularly noteworthy that the use of the SERAAK2 compound at a concentration of 30 µM reduces the number of viable cells below the level of the positive control (doxorubicin) at the same concentration (Table 3). […] Under the experimental conditions used, after 72 h of incubation, a fraction of doxorubicin-treated cells remains metabolically active and generates a low signal in the MTS assay. The enhanced signal reduction observed in the MTS assay for the tested compound, compared to doxorubicin, indicates strong cytotoxic activity leading to necrosis of the entire cell population.
# (§2) An assessment of the cytotoxic potential of SERAAK2 was carried out utilizing the colorimetric MTS assay. This investigation was executed on both HepG2 and SH-SY5Y cell lines, adhering to an identical procedure. The cell lines, sourced from the American Type Culture Collection (Manassas, VA, USA), were cultured under standard conditions (5% CO2, 37 °C) in DMEM/F12 medium (#31330-038, ThermoFisher Scientific, Waltham, MA, USA). The medium was supplemented with 10% Fetal Bovine Serum (FBS, #A5256801, ThermoFisher Scientific) and a Penicillin–Streptomycin solution (#15140-122, ThermoFisher Scientific) until their use in the study. Cells within passage numbers 15 to 25 were plated in 96-well plates at a density of 5000 cells per well in 200 μL of medium and allowed to adhere during a 24 h incubation at 37 °C with 5% CO2. […] The plates were then subsequently returned to the 37 °C incubator, after which absorbance was recorded with a Spark microplate reader; this measurement occurred after 1 h for the HepG2 line and 3 h for the SH-SY5Y line. The ultimate cell viability percentage was determined by comparing results to the control wells, which represented 100% viability, and the wells treated with 10 μM doxorubicin, which were defined as 0% viability. […]
# [3] = system: SH-SY5Y cells; assay: MTS cytotoxicity assay in SH-SY5Y cells; format: cell-based, human; details: 72 h
# Description: as §1, §2
# [4] = system: mice; assay: Motor coordination, rotarod test; format: in vivo; details: for Motor coordination (rotarod, chimney): rotarod and chimney
# Description: (§3) The investigated compound (SER2AAK2) was bought from Enamine (purity over 95%) and in all tests was administered intraperitoneally (i.p.), spread in a drop of Tween 80, and diluted with an aqueous solution of 0.5% methylcellulose (tylose) and injected 60 min before the tests in a volume of 10 mL/kg. Control groups received tylose injections of the same volume and via the same route of administration.
# The effects of the SER2AAK2 compound were also measured in the rotarod and chimney tests. In the rotarod test, mice were evaluated for their ability to maintain balance on a constantly rotating rod (18 rpm) for 1 min. The chimney test involved placing a mouse in a horizontal polymer tube (3 cm diameter, 25 cm length). Once the mouse reached the far end, the tube was positioned vertically, requiring the animal to climb backwards to exit. Right motor coordination was defined as exiting the chimney within 60 s. Prior to testing, mice underwent a 3-day training. Only those animals that were able to stay on the rotating rod or leave the chimney within the required time were included in the study.
# [5] = system: mice; assay: Elevated plus maze (EPM) test; format: in vivo
# Description: as §3
# Anxiety behaviors were measured using the EPM test according to the Lister method. The apparatus consisted of four black-painted arms arranged in a plus-shaped configuration with a central platform (5 × 5 cm). Two opposing arms were open (30 × 5 cm), while the other two were enclosed (30 × 5 × 15 cm). The maze was elevated 38.5 cm above the floor and illuminated with dim, diffuse red light. Experiments were conducted in a quiet, dark room. […] The following parameters were recorded: time spent in the open arms, number of entries into the open arms, and total number of entries into both types of arms.
# [6] = system: mice; assay: Forced swim test (FST); format: in vivo; details: 7.5 mg/kg i.p., 60 min before test
# Description: as §3
# The study was carried out using the test proposed by R. Porsolt. The method is based on the observation of an animal forced to swim in a confined space from which there is no escape. After an initial period of vigorous attempts to get out, the animal finally gives up on escaping. The test consists of immersing the mouse individually in a cylindrical beaker (diameter 10 cm, height 25 cm) filled with water (at a temperature of 23–25 °C) at a height of 10 cm for 6 min. The immobility time was measured during the final 4 min of the test (between 2 and 6 min).
# [7] = system: mice; assay: Amphetamine-induced hyperactivity; format: in vivo; details: 7.5 mg/kg i.p. 60 min before test, amphetamine 3 mg/kg 30 min later
# Description: as §3
# Locomotor activity of the mice was assessed using the Opto-Varimex-4 Auto-Track system (Columbus Instruments, OH, USA). Each mouse was placed individually in a testing cage for 25 min—5 min for acclimatization, followed by 20 min of activity recording. (6a) The total distance traveled (in centimeters) was measured. Cages were cleaned with 10% ethanol between sessions.
# [8] = biological target: 5-HT7 receptor; set-up: method as in PMID 38619283; details: cited from earlier work
# [9] = system: dopamine D2 receptor; set-up: method as in PMID 38619283; details: cited from earlier work
smiles,measurement,setting,value
OC(CNCCc1c[nH]c2ccccc12)COc1ccc(Oc2ccccc2)cc1 (stereo not drawn) [SERAAK2],inhibition at 10 µM,[1],0%
same,cytotoxic effects in HepG2 cells,[2]; 0.3 µM,no cytotoxic effects
same,HepG2 cell viability,[2]; 3 µM,85 % of the control
same,Percentage Reduction in the Number of Viable HepG2 Cells [Mean ± SEM],[2]; 30 µM,104 ± 1%
same,cytotoxic effects in SH-SY5Y cells,[3]; 0.3 µM,no cytotoxic effects
same,Percentage Reduction in the Number of Viable SH-SY5Y Cells [Mean ± SEM],[3]; 30 µM,108 ± 1%
same,time held on rotating rod,"[4]; mice, 7.5 mg/kg i.p., 60 min before test, test length 1 min",about 60 s
same,"Motor coordination (rotarod, chimney)","[4]; mice, 7.5 mg/kg",inactive; also recorded: no effect
same,"Motor coordination (rotarod, chimney)","[4]; mice, 15–60 mg/kg",impairment
same,motor coordination in the rotarod test,"[4]; mice, 60, 30 and 15 mg/kg i.p., 60 min before test",significant disturbances in motor coordination
same,"Elevated plus maze (EPM), open arm time and entries",[5]; 7.5 mg/kg,↑ open arm time and entries (7.5 mg/kg)—anxiolytic effect
same,EPM total number of entries into both open and closed arms,[5]; 7.5 mg/kg i.p.,remained unchanged
same,EPM percentage of open arm entries,"[5]; 7.5 mg/kg i.p., p < 0.01 vs control",significant increase
same,EPM percentage of time spent in the open arms,"[5]; 7.5 mg/kg i.p., p < 0.05 vs control",significant increase
same,FST immobility time,[6],significant decrease in immobility time; also recorded: ↓ immobility (7.5 mg/kg) antidepressant-like effect connected with serotonergic modulation
same,amphetamine-induced hyperactivity,[7],did not significantly modify this hyperactivity; also recorded: no effect
same,Ki,[8],0.914 ± 0.025 µM
same,"percent of inhibition at 10 μM, dopamine D2 receptor",[9],23 ± 6%
